Legend:
Assay in all cases: relative viability vs DMSO control (72 h) (fraction); higher = more viable cells
SW1353 = tested on: SW1353
In short: (§1)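 Sarcoma cell lines were seeded in 384-well plates at densities chosen for 80–90% confluence, then 24 h later given 2.5 µl of serially diluted compound drawn from source plates spanning 10 mM to 0.0002 mM. They were held 72 h at 37 °C, 5% CO2, with 0.1% DMSO vehicle and a 5 µM positive control included. Relative viability was read with ATPLite as percent growth and averaged over up to triplicate wells. Rescaling placed full at 1 and none at 0.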

HT1080 = tested on: HT1080
In short: as §1

KHOS-NP = tested on: KHOS-NP
In short: as §1

A204 = tested on: A204
In short: as §1

SW872 = tested on: SW872
In short: as §1

SYO-1 = tested on: SYO-1
In short: as §1

G401 = tested on: G401
In short: as §1

VA-ES-BJ = tested on: VA-ES-BJ
In short: as §1

SW684 = tested on: SW684
In short: as §1

MES-SA = tested on: MES-SA
In short: as §1

SK-LMS-1 = tested on: SK-LMS-1
In short: as §1

HS729 = tested on: HS729
In short: as §1

Cc1cn(-c2cc(NC(=O)c3ccc(C)c(Nc4nccc(-c5cccnc5)n4)c3)cc(C(F)(F)F)c2)cn1 [Nilotinib]
Conditions	relative viability
A204, 0.00017 µM	1
A204, 0.00051 µM	0.979
A204, 0.00152 µM	1.03
A204, 0.00457 µM	1.04
A204, 0.01372 µM	1.05
A204, 0.04115 µM	1.074
A204, 0.1235 µM	1.01
A204, 0.3704 µM	0.662
A204, 1.111 µM	0.421
A204, 3.333 µM	0.34
A204, 10 µM	0.345
G401, 0.00017 µM	0.944
G401, 0.00051 µM	0.963
G401, 0.00152 µM	0.968
G401, 0.00457 µM	0.963
G401, 0.01372 µM	0.979
G401, 0.04115 µM	0.982
G401, 0.1235 µM	0.995
G401, 0.3704 µM	0.923
G401, 1.111 µM	0.865
G401, 3.333 µM	0.795
G401, 10 µM	0.737
HS729, 0.00017 µM	0.914
HS729, 0.00051 µM	0.914
HS729, 0.00152 µM	0.92
HS729, 0.00457 µM	0.915
HS729, 0.01372 µM	0.922
HS729, 0.04115 µM	0.907
HS729, 0.1235 µM	0.848
HS729, 0.3704 µM	0.792
HS729, 1.111 µM	0.766
HS729, 3.333 µM	0.656
HS729, 10 µM	0.737
HT1080, 0.00017 µM	1.02
HT1080, 0.00051 µM	0.997
HT1080, 0.00152 µM	0.964
HT1080, 0.00457 µM	1.01
HT1080, 0.01372 µM	1.04
HT1080, 0.04115 µM	0.991
HT1080, 0.1235 µM	1.03
HT1080, 0.3704 µM	1
HT1080, 1.111 µM	0.993
HT1080, 3.333 µM	1.02
HT1080, 10 µM	0.889
KHOS-NP, 0.00017 µM	1.038
KHOS-NP, 0.00051 µM	1.05
KHOS-NP, 0.00152 µM	1.04
KHOS-NP, 0.00457 µM	1.05
KHOS-NP, 0.01372 µM	1.02
KHOS-NP, 0.04115 µM	1.02
KHOS-NP, 0.1235 µM	1.044
KHOS-NP, 0.3704 µM	1.03
KHOS-NP, 1.111 µM	1.04
KHOS-NP, 3.333 µM	1.02
KHOS-NP, 10 µM	0.929
MES-SA, 0.00017 µM	0.882
MES-SA, 0.00051 µM	0.867
MES-SA, 0.00152 µM	0.874
MES-SA, 0.00457 µM	0.875
MES-SA, 0.01372 µM	0.88
MES-SA, 0.04115 µM	0.94
MES-SA, 0.1235 µM	0.938
MES-SA, 0.3704 µM	0.93
MES-SA, 1.111 µM	0.891
MES-SA, 3.333 µM	0.659
MES-SA, 10 µM	0.594
SK-LMS-1, 0.00017 µM	0.953
SK-LMS-1, 0.00051 µM	0.983
SK-LMS-1, 0.00152 µM	1.01
SK-LMS-1, 0.00457 µM	1.03
SK-LMS-1, 0.01372 µM	1.02
SK-LMS-1, 0.04115 µM	1.05
SK-LMS-1, 0.1235 µM	1.11
SK-LMS-1, 0.3704 µM	1.12
SK-LMS-1, 1.111 µM	1.16
SK-LMS-1, 3.333 µM	0.978
SK-LMS-1, 10 µM	0.965
SW684, 0.00017 µM	1.04
SW684, 0.00051 µM	1.07
SW684, 0.00152 µM	1.09
SW684, 0.00457 µM	1.07
SW684, 0.01372 µM	1.07
SW684, 0.04115 µM	1.12
SW684, 0.1235 µM	1.21
SW684, 0.3704 µM	1.32
SW684, 1.111 µM	1.26
SW684, 3.333 µM	1.24
SW684, 10 µM	1.15
SW872, 0.00017 µM	0.959
SW872, 0.00051 µM	0.91
SW872, 0.00152 µM	0.924
SW872, 0.00457 µM	0.926
SW872, 0.01372 µM	0.948
SW872, 0.04115 µM	0.971
SW872, 0.1235 µM	1.01
SW872, 0.3704 µM	0.999
SW872, 1.111 µM	0.94
SW872, 3.333 µM	0.796
SW872, 10 µM	0.766
SW1353, 0.00017 µM	0.933
SW1353, 0.00051 µM	0.951
SW1353, 0.00152 µM	0.935
SW1353, 0.00457 µM	0.967
SW1353, 0.01372 µM	0.969
SW1353, 0.04115 µM	1.01
SW1353, 0.1235 µM	1.05
SW1353, 0.3704 µM	1.09
SW1353, 1.111 µM	1.08
SW1353, 3.333 µM	0.994
SW1353, 10 µM	0.846
SYO-1, 0.00017 µM	0.904
SYO-1, 0.00051 µM	0.868
SYO-1, 0.00152 µM	0.899
SYO-1, 0.00457 µM	0.865
SYO-1, 0.01372 µM	0.818
SYO-1, 0.04115 µM	0.84
SYO-1, 0.1235 µM	0.802
SYO-1, 0.3704 µM	0.6513
SYO-1, 1.111 µM	0.598
SYO-1, 3.333 µM	0.522
SYO-1, 10 µM	0.446
VA-ES-BJ, 0.00017 µM	1.05
VA-ES-BJ, 0.00051 µM	1.04
VA-ES-BJ, 0.00152 µM	1.04
VA-ES-BJ, 0.00457 µM	1.05
VA-ES-BJ, 0.01372 µM	1.05
VA-ES-BJ, 0.04115 µM	1.06
VA-ES-BJ, 0.1235 µM	1.08
VA-ES-BJ, 0.3704 µM	1.1
VA-ES-BJ, 1.111 µM	1.1
VA-ES-BJ, 3.333 µM	0.989
VA-ES-BJ, 10 µM	0.679

Reference: the supplement of paper PMC10883282
